These results are taken from patent US20020064847A1, “NOVEL SECONDARY ALCOHOL DEHYDROGENASE, PROCESS FOR PREPARING SAID ENZYME, AND PROCESS FOR PREPARING ALCOHOLS AND KETONES USING SAID ENZYME” (priority 1996, published 2002).

“Also recorded” adds a separate entry of the source. Read-outs that look alike come from different tables or passages of the source.

For experiment [1], the system named is secondary alcohol dehydrogenase. The experiment is described as follows: Substrate specificity, oxidation reaction. Type of experiment: biochemical, Geotrichum candidum IFO 4601. Particulars: coenzyme NAD+, (S)-1,3-butanediol-oxidizing activity = 100. The method, then: (§1) In the present invention, secondary alcohol dehydrogenase activity was determined by allowing the enzyme to react in the reaction mixture containing potassium phosphate buffer (pH 8.0, 50 μmol), 2.5 μmol NAD^+, and 50μmol (S)-1,3-butanediol at 30° C. and measuring an increase of absorbance at 340 nm resulting from generation of NADH. One unit was defined as the amount of enzyme catalyzing generation of 1μmol of NADH per minute.
(§2) The secondary alcohol dehydrogenase was reacted with various alcohols and aldehydes. Its oxidation and reduction activities are shown in Table 1 as relative activities to (S)-1,3-butanediol-oxidizing activity and 4-hydroxy-2-butanone-reducing activity that are taken as 100.

Experiment [2] has the same test system. The experiment is described as follows: Behavior of the secondary alcohol dehydrogenase to inhibitors (residual activity). Type of experiment: biochemical, Geotrichum candidum IFO 4601. Particulars: for Residual activity: 30° C. for 10 minutes. The method, then: as §1
The secondary alcohol dehydrogenase was treated with various reagents at 30° C. for 10 minutes.

For experiment [3] the test system is unchanged. Description: Substrate specificity, reduction reaction. Type of experiment: biochemical, Geotrichum candidum IFO 4601. As to conditions: 4-hydroxy-2-butanone-reducing activity = 100. On the procedure: The secondary alcohol dehydrogenase was examined for its activity of oxidation of (S)-1,3-butanediol and that of reduction of 4-hydroxy-2-butanone [which was measured under the same conditions as those used for measuring activity of oxidation of (S)-1,3-butanediol except for using NADH (0.4 μmol) instead of NAD^+] at different pHs using potassium-phosphate buffer (KPB), Tris-HCl buffer and Britten-Robinson buffer by measuring the decrease of absorbance at 340 nm accompanied with reduction of the amount of NADH. The activity is shown in FIGS. 3 and 4 as relative activity with taking the maximal activity as 100. The optimum pH in the reaction was 8.0-9.0 in the case of the oxidation of (S)-1,3-butanediol (FIG. 3) and 7.0 in the case of the reduction of 4-hydroxy-2-butanone (FIG. 4).
as §2

The test system is the same in experiment [4]. Description: Enzyme kinetic analysis. Type of experiment: biochemical, Geotrichum candidum IFO 4601. The method, then: as §1
The reaction rate constants of the purified secondary alcohol dehydrogenase to the following substrates were measured.

Experiment [5] has the same test system. The experiment is described as follows: Substrate specificity, oxidation reaction. Type of experiment: biochemical, Geotrichum candidum IFO 4601. As to conditions: substrate 50 mM, coenzyme NADP+, (S)-1,3-butanediol-oxidizing activity = 100.
Experiment [6] deals with primary alcohol dehydrogenase (SADH 1) (Saccharomyces cerevisiae, UniProt P00330). As to conditions: SADH 1 from Saccharomyces cerevisiae; cited from earlier work.
Chain of primary alcohol dehydrogenase (SADH 1) (P00330 whole entry): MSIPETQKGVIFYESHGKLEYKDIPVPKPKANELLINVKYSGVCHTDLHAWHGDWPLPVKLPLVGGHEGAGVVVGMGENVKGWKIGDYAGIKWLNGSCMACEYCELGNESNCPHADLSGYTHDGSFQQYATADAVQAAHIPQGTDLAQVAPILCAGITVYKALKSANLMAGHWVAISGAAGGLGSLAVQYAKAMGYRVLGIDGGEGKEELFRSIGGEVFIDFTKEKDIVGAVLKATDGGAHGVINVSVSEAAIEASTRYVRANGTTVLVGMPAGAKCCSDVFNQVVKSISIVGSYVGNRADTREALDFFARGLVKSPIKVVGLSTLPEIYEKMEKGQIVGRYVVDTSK
[7] abbreviates: substrate 100 mM, coenzyme NADH.

The Km is the substrate concentration at which the rate is half of its maximum.

As for 1-butanol, the Relative activity in experiment [1] (substrate 100 mM) is recorded as 12.9%.

1-propanol: in experiment [1] (substrate 100 mM), the Relative activity is recorded as 15.5%.

`O[C@H](CS)[C@H](O)CS` (racemic) [dithiothreitol] displayed a Residual activity in experiment [2] (inhibitor 1.0 mM) of 42.9%.

Regarding `CCC(C)=O` [2-butanone], the Relative activity in experiment [3] (setting [7]) is 20.2%.

In the case of `OCCS` [2-mercaptoethanol], the “Inhibition of the enzyme (in words)” value in experiment [2] is recorded as “markedly inhibited”; in experiment [2] (listed as 2-mercaptethanol), “inhibited”. In experiment [2] (inhibitor 0.01 mM), this compound had a Residual activity of 6.8%.

As to `CC(C)O` [2-propanol], the Relative activity in experiment [1] (substrate 100 mM) stood at 96.8%.

For `CC(=O)CCO` [4-hydroxy-2-butanone], the Relative activity in experiment [3] (substrate 20 mM, coenzyme NADH) turned out to be 100%; in experiment [3] (substrate 20 mM, coenzyme NADPH), 0%.

Regarding `C[C@@H](O)CO` [(R)-1,2-propanediol], in experiment [1] (substrate 50 mM), the Relative activity came to 10.4%.

`C[C@@H](O)CCO` [(R)-1,3-butanediol] returned an E value in experiment [4] ((S)- versus (R)-1,3-butanediol) of 33.0. The Vmax in experiment [4] (purified enzyme) was 4.43 U/mg of protein. Further, in experiment [5], the Relative activity stood at 8.8%.

As for `C[C@@H](O)c1ccccc1` [(R)-1-phenylethanol], in experiment [1] (substrate 50 mM), the Relative activity is given as 19.2%.

Turning to `CCCCCC[C@@H](C)O` [(R)-2-octanol], the Relative activity in experiment [1] (substrate 5 mM) amounted to 13.3%.

Take `C[C@H](O)CO` [(S)-1,2-propanediol]: the Relative activity in experiment [1] (substrate 50 mM) amounted to 23.8%.

In the case of `C[C@H](O)CCO` [(S)-1,3-butanediol], in experiment [4] (purified enzyme), the Km came to 41.4 mM and the Vmax was 36.7 U/mg of protein. For the same compound, the Relative activity in experiment [1] (substrate 50 mM) is 100%. For the same compound, in experiment [5], the Relative activity is given as 2.4%.

As for `C[C@H](O)c1ccccc1` [(S)-1-phenylethanol], in experiment [1] (substrate 50 mM), the Relative activity is listed as 267%.

With `CCCCCC[C@H](C)O` [(S)-2-octanol], in experiment [1] (substrate 5 mM), the Relative activity is recorded as 187%.

Take `CC(C)=O` [acetone]: in experiment [3] (setting [7]), the Relative activity is 164%.

`CC(=O)c1ccccc1` [acetophenone]: the Relative activity in experiment [3] (substrate 20 mM, coenzyme NADH) is recorded as 122%.

Regarding `C=CCO` [allyl alcohol], the Relative activity in experiment [1] (substrate 100 mM) is 18.7%.

Regarding `[Cl][Co][Cl]` [cobalt chloride], the Residual activity in experiment [2] (inhibitor 1.0 mM) is 81.0%.

For `O=S(=O)([O-])[O-].[Cu+2]` [copper sulfate], the Residual activity in experiment [2] (inhibitor 1.0 mM) was determined as 71.5%.

In the case of `OC1CCCCC1` [cyclohexanol], the Relative activity in experiment [1] (substrate 20 mM) was determined as 90.4%.

As for `CCO` [ethanol], the Relative activity in experiment [1] (substrate 100 mM) is recorded as 10.7%.

For the compound `CCOC(=O)CC(C)=O` [ethyl acetoacetate], the Relative activity in experiment [3] (setting [7]) amounted to 96.8%.

On to `O=C(O)CN(CCN(CC(=O)O)CC(=O)O)CC(=O)O` [ethylenediaminetetraacetic acid], for which the “Inhibition of the enzyme (in words)” value in experiment [2] was “inhibited”. Further, the Residual activity in experiment [2] (inhibitor 1.0 mM) came to 63.5%; in experiment [2] (inhibitor 10 mM), 9.8%.

Take `OCC(O)CO` [glycerol]: in experiment [1] (substrate 50 mM), the Relative activity was 0%.

Take `NC(=O)CI` [iodoacetamide]: the “Inhibition of the enzyme (in words)” value in experiment [2] was “perfectly inhibited; also recorded: markedly inhibited”. In experiment [2] (inhibitor 1.0 mM), the Residual activity is on record as 2.4%.

`[Cl][Hg][Cl]` [mercuric chloride]: the “Inhibition of the enzyme (in words)” value is listed as “markedly inhibited” in experiment [2] and “inhibited” in experiment [2] (listed as mercury chloride). The compound further had a Residual activity in experiment [2] (inhibitor 1.0 mM) of 0.0%.

Turning to `CO` [methanol], the Relative activity in experiment [1] (substrate 100 mM) is given as 60.8%.

Turning to `COC(=O)C[C@@H](C)O` [methyl (R)-3-hydroxybutyrate], the Relative activity in experiment [1] (substrate 50 mM) is listed as 22.1%.

`COC(=O)C[C@H](C)O` [methyl (S)-3-hydroxybutyrate]: in experiment [1] (substrate 50 mM), the Relative activity came out at 138%.

Turning to `O=C(O)c1cc[c]([Hg][Cl])cc1` [p-chloromercuribenzoic acid], the “Inhibition of the enzyme (in words)” value in experiment [2] is on record as “perfectly inhibited”; in experiment [2] (listed as parachloromercuribenzoic acid), “markedly inhibited”. Moreover, the Residual activity in experiment [2] (inhibitor 0.05 mM) was determined as 0.0%.

On to `[Cl-].[Cl-].[Zn+2]` [zinc chloride], for which the “Inhibition of the enzyme (in words)” value in experiment [2] is listed as “markedly inhibited”. In experiment [2] (inhibitor 10 mM), this compound showed a Residual activity of 0.9%.

Consider (R)-2-butanol, for which the Relative activity in experiment [1] (substrate 50 mM) came to 60.0%.

With (RS)-2-butanol, in experiment [1] (substrate 100 mM), the Relative activity is listed as 85.9%. Moreover, in experiment [6], the “Activity relative to ethanol” value is listed as “approximately 1%”.

Turning to (S)-2-butanol, the Relative activity in experiment [1] (substrate 50 mM) was found to be 112%.
